“Also recorded” adds a separate entry of the source. Read-outs that look alike come from different tables or passages of the source.
Legend:
SERT [1] = target: T1, SERT (Homo sapiens (Human), UniProt P31645); settings: read-out: IC50 inhibiting reuptake at SERT; cited from earlier work
DAT [2] = target: T2, DAT (Homo sapiens (Human), UniProt Q01959); settings: read-out: IC50 inhibiting reuptake at DAT; cited from earlier work
DAT [3] = target: T2, DAT; assay: hDAT release assay in CHO cells ([3H]dopamine)
5-HT2B = 5-HT2B (Homo sapiens (Human), UniProt P41595); assay: 5-HT2B agonist and antagonist calcium assay (Calcium NWPLUS, FLIPR); type: cell-based
[4] = target: T3, serotonin (5-HT) transporter (SERT) (Rattus norvegicus (Rat), UniProt P31652); assay: Rat synaptosome SERT [3H]5-HT uptake inhibition assay; settings: Inhibition of [3H]5-HT Uptake at SERT IC50 (nM), 5 nM [3H]5-HT
SERT [5] = target: T1, SERT; assay: hSERT release assay in CHO cells ([3H]serotonin)
5-HT2A receptors = 5-HT2A receptors (Homo sapiens (Human), UniProt P28223); assay: 5-HT2A agonist and antagonist calcium assay (Calcium NWPLUS, FLIPR); type: cell-based
Experimental: The DiscoveRx Calcium NWPLUS Assay was used for detection of changes in intracellular calcium as signalled by an increase of dye fluorescence in cells expressing 5-HT2A receptors. Signal was measured on a fluorescent plate reader equipped with fluidic handling capable of detecting rapid changes in fluorescence upon compound stimulation.
To conduct the assay, cell lines were expanded from freezer stocks according to standard procedures. Cells (10,000 cells/well) were seeded in a total volume of 50 μL (200 cells/μL) into black-walled, clear-bottom, Poly-D-lysine coated 384-well microplates and incubated at 37-C for the appropriate time prior to testing. DMSO concentration for all readouts was ≤0.2%.
Assays were performed in 1×DyeLoading Buffer consisting of 1×Dye (DiscoverX, Calcium No WashPLUS kit, Catalog No. 90-0091), 1×Additive A and 2.5 mM Probenecid in HBSS/20 mM Hepes. Probenecid was prepared fresh. Cells were loaded with dye prior to testing. Media was aspirated from cells and replaced with 25 μL Dye Loading Buffer. Test compounds were assayed at 10 concentrations with the highest concentration either 30 or 10 μM and subsequent concentrations using a 0.33 dilution factor. Cells with testing sample were incubated for 45 minutes at 37° C. and then 20 minutes at room temperature. After dye loading, cells were removed from the incubator and 25 μL of 2×compound in HBSS/20 mM Hepes was added using a FLIPR Tetra (MDS). […]
Compound agonist activity was measured on a FLIPR Tetra. Calcium mobilization was monitored for 2 minutes with a 5 second baseline read. FLIPR read-Area under the curve was calculated for the two minute read. Compound activity was analyzed using CBIS data analysis suite (ChemInnovation, CA). Percentage activity was calculated as 100%×(mean RFU of test sample−mean RFU of vehicle control)/(mean MAX RFU control ligand −mean RFU of vehicle control). For antagonist mode assays, percentage inhibition was calculated as 100%×(1−(mean RFU of test sample−mean RFU of vehicle control)/(mean RFU of EC80 control−mean RFU of vehicle control)).

[6] = target: Nicotinic Acetylcholine Receptor α4β2 (nAchRa4/b2) (Homo sapiens (Human), UniProt P17787+P43681); assay: Nicotinic acetylcholine receptor α4β2 ion channel blocking assay; type: cell-based
Experimental: Cell lines were expanded from freezer stocks according to standard procedures. Cells were seeded in a total volume of 20 μL into black-walled, clear-bottom, Poly-D-lysine coated 384-well microplates and incubated at 37° C. for the appropriate time prior to testing.
Assays were performed in 1×Dye Loading Buffer consisting of 1×Dye, and 2.5 mM freshly-prepared Probenecid when applicable.
Test compounds were assayed at 10 concentrations with the highest concentration either 30 or 10 μM and subsequent concentrations using a 0.33 dilution factor.
Prior to testing, cells were loaded with dye then incubated for 30-60 minutes at 37° C. For antagonist determination, cells were pre-incubated with sample. Dihydro-β-erythroidine was used as a positive control. Intermediate dilution of sample stocks was performed to generate 2-5×sample in assay buffer.
After dye loading, cells were moved from the incubator and 10-25 μL 2-5×sample was added to cells in the presence of EC80 agonist when appropriate. Cells were incubated for 30 minutes at room temperature in the dark to equilibrate plate temperature. Vehicle concentration was 1%.
Compound activity was measured on a FLIPRTetra(MDS) and analyzed using CBIS data analysis suite (ChemInnovation, CA). Percentage inhibition was calculated using the following formula: % Inhibition=100%×(1−(mean RLU of test sample−mean RLU of vehicle control)/(mean RLU of EC80 control−mean RLU of vehicle control)).

[7] = target: T3, serotonin (5-HT) transporter (SERT); assay: Rat synaptosome SERT [3H]5-HT release assay; settings: [3H]5-HT release via SERT EC50 (nM), 5 nM [3H]5-HT
MAO-A = MAO-A (Homo sapiens (Human), UniProt P21397); assay: MAO-A inhibition assay (kynuramine); type: biochemical
Experimental: MAO-A and test compounds were preincubated at 37° C. for 15 minutes before substrate addition. Test compounds were assayed at 10 concentrations with the highest concentration either 30 or 10 μM and subsequent concentrations using a 0.33 dilution factor. The reaction was initiated by addition of kynuramine and incubated at 37° C. for 30 minutes. The reaction was terminated by addition of NaOH. The amount of 4-hydroquioline formed was determined through spectrofluorimetric readout with the emission detection at 380 nm and excitation wavelength 310 nm.

[8] = target: human 5-HT transporter (hSERT) (Homo sapiens (Human), UniProt P31645); assay: Human serotonin transporter  assay ([3H]imipramine radioligand, CHO cells); type: binding; settings: SERT IC50 (μM), 2 nM [3H]imipramine
Experimental: Benzofuran derivatives were evaluated for inhibiting the human 5-HT transporter (hSERT) as expressed in CHO cells using an antagonist radioligand assay (Tatsumi, M. et al. (1999), Eur. J Pharmacol., 368: 277-283). […] Test compounds were assayed in three trials at […], and 0.94868 μM.

5-HT1BR = 5-HT1BR (Homo sapiens (Human), UniProt P28222); assay: 5-HT1BR cAMP secondary messenger agonist assay (HitHunter, CHO-K1); type: cell-based
Text: The 5-HT1BR cAMP secondary messenger agonist assay used a panel of CHO-K1 cell lines stably expressing non-tagged GPCRs that endogenously signal through cAMP. Hit Hunter® cAMP assays monitored the activation of a GPCR via Gi and Gs secondary messenger signaling in a homogenous, non-imaging assay format using DiscoverX Enzyme Fragment Complementation (EFC) with β-galactosidase as the functional endpoint.
The enzyme was split into two complementary portions: Enzyme Acceptor (EA) and Enzyme Donor (ED). Exogenously introduced ED fused to cAMP (ED-cAMP) competed with endogenously generated cAMP for binding to an anti-cAMP-specific antibody. Active β-galactosidase was formed by complementation of exogenous EA to any unbound ED-cAMP.
Cell lines were expanded from freezer stocks according to standard procedures. Cells were seeded in a total volume of 20 μL into white walled, 384-well microplates and incubated at 37° C. for the appropriate time prior to testing. cAMP modulation was determined using the DiscoverX HitHunter cAMP XS+ assay.
For agonist determination, cells were incubated with sample (in the presence of EC80 forskolin to induce response if measuring Gi secondary messenger signaling). Media was aspirated from cells and replaced with 15 μL 2:1 HBSS/10 mM Hepes:cAMP XS+ Ab reagent. Intermediate dilution of sample stocks was performed to generate 4×sample in assay buffer (optionally containing 4×EC80 forskolin). 5 μL of 4×sample was added to cells and incubated at 37° C. or room temperature for 30 or 60 minutes, as appropriate. Final assay vehicle concentration was 1%.

neuritogenesis = settings: cited from earlier work
5-HT1B = 5-HT1B (Homo sapiens (Human), UniProt P28222); settings: cited from earlier work
healthy human individual = assay: Human effects of non-racemic 5-MAPB, self-reported ratings (Good, Bad, Open); type: in vivo; settings: averaged from all sessions, 54 mg 5-MAPB HCl oral in two halves
Experimental: The effects of non-racemic 5-MAPB HCl were tested by a healthy human individual at four different ratios of enantiomers plus the racemate as a control: • 54 mg S and 0 mg R (100% S) • 47 mg Sand 7 mg R (87% S) • 36 mg S and 18 mg R (67% S) • 27 mg S and 27 mg R (50% S) • 7 mg S and 47 mg R (13% S)
Two trials were carried out at each ratio, except for 13% S where only one was conducted. Trials were at least 72 h apart.
5-MAPB HCl was dissolved in 1.5 ml distilled water and consumed in two halves, separated by 1 hour. Starting at 3 hours after administration, tablets of 250 mg ascorbic acid and capsules of 300 mg alpha lipoic acid were taken ad libitum (approximately every hour for a total of 4 administrations).
Measurements were made approximately every 2 hours until post 6 hours and the maximum ratings per session were analyzed. Additionally, an index of good drug effects versus emotional openness, calculated as (Open−Good)/(200, the theoretical maximum of Open+Good), was constructed at each time point and the maximum analyzed. In healthy volunteers, Good Ratings can be considered a predictor of abuse liability. Accordingly, this index can be used as an indicator of the balance of a therapeutic effect (emotional openness) vs abuse liability.
Historic data of two trials 50 mg RS-5-MAPB Cl from the same individual were also included in the analysis for comparison.

MDR1-MDCKII = assay: In vitro absorption assay, MDR1-MDCKII permeability; type: in vitro ADME; settings: 10 μM
Experimental: (§1) The permeability of 10 μM RS-5-MAPB in Caco-2, MDCKII, and MDR1-MDCKII cell line assays was assessed (Table 6). Both the AB and BA directions with and without the addition of a Pgp-specific inhibitor (verapamil), a MRP1 inhibitor (MK571), and an ATP-binding cassette subfamily G member 2 (ABCG2/BCRP) inhibitor (KO143) were measured. Trials were repeated twice, and values averaged.

MDCKII = assay: In vitro absorption assay, MDCKII permeability; type: in vitro ADME; settings: 10 μM, pH 7.4/7.4
Experimental: as §1

Caco-2 = assay: In vitro absorption assay, Caco-2 permeability; type: in vitro ADME; settings: for Permeability (Papp, 10^-6 cm/s) A-B / Permeability (Papp, 10^-6 cm/s) B-A: 10 μM
Experimental: as §1

Sequence of 5-HT1B (P28222 whole entry, looked up, species assumed): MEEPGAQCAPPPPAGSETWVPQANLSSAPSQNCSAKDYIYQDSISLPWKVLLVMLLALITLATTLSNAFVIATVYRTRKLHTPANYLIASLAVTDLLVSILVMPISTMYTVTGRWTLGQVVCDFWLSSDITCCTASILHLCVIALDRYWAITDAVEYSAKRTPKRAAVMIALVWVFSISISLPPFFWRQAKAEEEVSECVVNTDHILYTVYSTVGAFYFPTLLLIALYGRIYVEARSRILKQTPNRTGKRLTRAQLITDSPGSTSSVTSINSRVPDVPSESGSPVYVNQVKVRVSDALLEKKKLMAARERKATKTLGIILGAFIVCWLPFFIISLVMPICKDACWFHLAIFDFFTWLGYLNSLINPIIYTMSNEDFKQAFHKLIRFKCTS
Sequence of 5-HT2B (P41595 whole entry, looked up, species assumed): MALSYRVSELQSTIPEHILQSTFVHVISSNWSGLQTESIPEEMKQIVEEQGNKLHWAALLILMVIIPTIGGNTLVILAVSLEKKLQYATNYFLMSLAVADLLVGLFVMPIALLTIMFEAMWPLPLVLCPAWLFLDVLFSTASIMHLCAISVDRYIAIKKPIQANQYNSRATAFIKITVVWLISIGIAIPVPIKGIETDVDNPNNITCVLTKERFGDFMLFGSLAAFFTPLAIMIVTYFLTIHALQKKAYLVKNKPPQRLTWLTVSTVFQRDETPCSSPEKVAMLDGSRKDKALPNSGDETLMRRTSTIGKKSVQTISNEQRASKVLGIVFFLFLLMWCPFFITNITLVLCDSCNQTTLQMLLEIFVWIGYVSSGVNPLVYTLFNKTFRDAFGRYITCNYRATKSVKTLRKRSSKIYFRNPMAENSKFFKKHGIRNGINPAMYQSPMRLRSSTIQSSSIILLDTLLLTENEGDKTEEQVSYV
Sequence of Nicotinic Acetylcholine Receptor α4β2 (nAchRa4/b2) (P43681 29-627 limits assumed): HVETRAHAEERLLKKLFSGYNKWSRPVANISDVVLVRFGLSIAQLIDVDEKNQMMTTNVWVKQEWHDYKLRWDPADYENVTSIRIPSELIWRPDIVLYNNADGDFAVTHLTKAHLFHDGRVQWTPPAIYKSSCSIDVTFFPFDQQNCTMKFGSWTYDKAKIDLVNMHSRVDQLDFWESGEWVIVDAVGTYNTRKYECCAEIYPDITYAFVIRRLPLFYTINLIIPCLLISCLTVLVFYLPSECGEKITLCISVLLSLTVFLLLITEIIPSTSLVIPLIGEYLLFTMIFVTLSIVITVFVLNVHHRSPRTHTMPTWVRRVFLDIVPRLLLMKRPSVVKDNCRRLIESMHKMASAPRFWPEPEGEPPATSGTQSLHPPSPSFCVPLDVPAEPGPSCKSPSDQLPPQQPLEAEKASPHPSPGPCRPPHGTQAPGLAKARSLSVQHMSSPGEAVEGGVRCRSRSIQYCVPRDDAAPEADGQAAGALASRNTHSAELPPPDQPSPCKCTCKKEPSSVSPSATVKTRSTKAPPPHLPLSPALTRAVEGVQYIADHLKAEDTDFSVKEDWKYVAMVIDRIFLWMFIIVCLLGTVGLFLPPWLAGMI
Sequence of Nicotinic Acetylcholine Receptor α4β2 (nAchRa4/b2) (P17787 26-502 limits assumed): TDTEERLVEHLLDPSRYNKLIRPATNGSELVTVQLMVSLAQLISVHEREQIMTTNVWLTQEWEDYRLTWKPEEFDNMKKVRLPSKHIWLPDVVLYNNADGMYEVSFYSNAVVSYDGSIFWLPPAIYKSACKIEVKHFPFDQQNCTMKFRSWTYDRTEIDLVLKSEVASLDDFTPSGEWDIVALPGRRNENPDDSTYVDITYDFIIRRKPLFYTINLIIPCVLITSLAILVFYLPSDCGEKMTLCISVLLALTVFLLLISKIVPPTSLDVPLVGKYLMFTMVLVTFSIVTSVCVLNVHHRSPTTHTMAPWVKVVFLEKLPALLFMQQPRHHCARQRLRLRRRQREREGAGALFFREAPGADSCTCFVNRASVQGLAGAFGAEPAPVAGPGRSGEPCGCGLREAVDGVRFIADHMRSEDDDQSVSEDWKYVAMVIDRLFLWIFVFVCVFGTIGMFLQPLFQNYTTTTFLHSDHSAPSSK
Sequence of MAO-A (P21397 whole entry, looked up, species assumed): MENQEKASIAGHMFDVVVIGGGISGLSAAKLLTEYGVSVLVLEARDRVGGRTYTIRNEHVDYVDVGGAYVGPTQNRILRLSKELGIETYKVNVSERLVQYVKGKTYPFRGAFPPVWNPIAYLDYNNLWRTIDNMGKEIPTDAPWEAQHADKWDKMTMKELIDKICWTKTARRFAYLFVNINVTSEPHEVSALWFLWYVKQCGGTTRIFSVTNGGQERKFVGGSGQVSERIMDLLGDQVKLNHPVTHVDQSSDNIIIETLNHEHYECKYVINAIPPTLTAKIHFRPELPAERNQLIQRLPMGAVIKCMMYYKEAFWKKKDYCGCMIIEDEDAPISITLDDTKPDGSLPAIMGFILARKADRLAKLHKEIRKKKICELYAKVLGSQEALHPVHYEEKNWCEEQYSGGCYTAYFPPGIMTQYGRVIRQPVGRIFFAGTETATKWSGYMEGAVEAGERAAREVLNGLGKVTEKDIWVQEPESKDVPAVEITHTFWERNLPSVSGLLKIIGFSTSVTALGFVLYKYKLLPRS

## CNC(C)Cc1ccc2occc2c1 (racemic) [racemic 5-MAPB, 1-(benzofuran-5-yl)-N-methylpropan-2-amine]
SERT [1]
  IC50: 8500 nM
DAT [2]
  IC50: 3100 nM

## CN[C@H](C)Cc1ccc2occc2c1 [Compound R-5-MAPB, (R)-1-(benzofuran-5-yl)-N-methylpropan-2-amine]
DAT [3]; EC50 DAT (Mean ± SEM, nM), CHO cells expressing hDAT
  EC50: 1950 ± 401 nM
5-HT2B
  IC50: 360 nM
[4]
  IC50: 150 ± 8.6 nM
SERT [5]; EC50 SERT (Mean ± SEM, nM), CHO cells expressing hSERT
  EC50: 184 ± 3 nM
5-HT2A receptors
  EC50: 2400 nM
  IC50: 5340 nM
[6]
  IC50: 4240 nM
[7]
  EC50: 29.3 ± 3.7 nM
MAO-A
  IC50: 3940 nM
[8]
  IC50: 2.7 µM
5-HT1BR
  Hill Coef.: 1.13
5-HT1BR; 5-HT1BR EC50 (μM)
  EC50: 0.981 µM
5-HT1BR; 5HT1B Agonist (μM)
  EC50: 0.98 µM

## CNC(C)Cc1ccc2c(c1)OCO2 (centres unmarked) [MDMA]
[4]
  IC50: 384 ± 32.8 nM
neuritogenesis; read-out: EC50 for promoting neuritogenesis
  EC50: 7.41 nM
neuritogenesis; relative to ketamine
  Emax for promoting neuritogenesis: approximately twice that of ketamine
5-HT1B
  binding to 5-HT1B: does not bind directly
[7]
  EC50: 94.3 ± 13.6 nM

## CNC(C)Cc1ccc2occc2c1.Cl (centres unmarked) [RS-5-MAPB]
DAT [3]; read-out: EC50 DAT (Mean ± SEM), CHO cells expressing hDAT
  EC50: 459 ± 48 nM
SERT [5]; read-out: EC50 SERT (Mean ± SEM), CHO cells expressing hSERT
  EC50: 90 ± 16 nM
Healthy human individual; maximum 0-100 rating of bad drug effects
  Bad: 10%
Healthy human individual; maximum 0-100 rating of emotional openness
  Open: 45%
Healthy human individual; maximum 0-100 rating of good drug effects
  Good: 50%
MDR1-MDCKII; pH 7.4/7.4
  Permeability (Papp, 10^-6 cm/s) A-B: 68.7 10^-6 cm/s
  Permeability (Papp, 10^-6 cm/s) B-A: 20.5 10^-6 cm/s
MDR1-MDCKII; pH 7.4/7.4 + verapamil
  Permeability (Papp, 10^-6 cm/s) A-B: 42.8 10^-6 cm/s
  Permeability (Papp, 10^-6 cm/s) B-A: 30.4 10^-6 cm/s
MDCKII
  Permeability (Papp, 10^-6 cm/s) A-B: 82.1 10^-6 cm/s
  Permeability (Papp, 10^-6 cm/s) B-A: 19.8 10^-6 cm/s
Caco-2; Caco-2, pH 7.4/7.4
  Permeability (Papp, 10^-6 cm/s) A-B: 81 10^-6 cm/s
  Permeability (Papp, 10^-6 cm/s) B-A: 29.1 10^-6 cm/s
Caco-2; Caco-2, pH 7.4/7.4 + KO143
  Permeability (Papp, 10^-6 cm/s) A-B: 75.3 10^-6 cm/s
  Permeability (Papp, 10^-6 cm/s) B-A: 14 10^-6 cm/s
Caco-2; Caco-2, pH 7.4/7.4 + verapamil
  Permeability (Papp, 10^-6 cm/s) A-B: 37.6 10^-6 cm/s
  Permeability (Papp, 10^-6 cm/s) B-A: 23 10^-6 cm/s
Caco-2; Caco-2, MDCKII and MDR1-MDCKII
  absorption and transport (conclusion from permeability assays): well absorbed; also recorded: actively transported through a mechanism that was inhibited by verapamil

Source: patent US11767305B2, “Advantageous benzofuran compositions for mental disorders or enhancement” (Tactogen Inc, priority 2020, dated 2023)
